# Experimental data taken from patent publication US20120046363A1, “DOCOSAHEXAENOIC ACID FOR THE TREATMENT OF HEART FAILURE” (University of Maryland, Baltimore, priority 2009, published 2012).
# Legend:
# [1] = Rat abdominal aortic constriction (banding) pressure overload model of HF; format: in vivo, male Wistar rats; settings: rats with aortic banding; ALA from flaxseed oil
# Text: A dose-response study was completed with EPA+DHA from fish oil using the rat abdominal aortic constriction pressure overload model of HF. In this model a permanent band is tied around the supra-renal abdominal aorta of male Wistar rats (˜200 g) by placing a blunt needle (20G) along the aorta and tying a 3-0 silk suture around both the aorta and the needle. The needle is removed, leaving the diameter of the aortic lumen determined by the diameter of the needle. The increase in aortic pressure results in progressive LV hypertrophy, mitochondrial dysfunction and decreased activity of mitochondrial enzymes, and LV dilation and contractile dysfunction and thus HF^2, 207-213.
# Rats were subjected to abdominal aortic banding and assigned them to 12 wks of treatment with either a standard chow or chow supplemented with EPA+DHA from fish oil at either 0.7, 2.3 or 7% of the total energy intake, with an EPA/DHA ration at a 30/70 mix, respectively. These doses correspond to estimated human doses of 1.6, 5.1 and 15.6 g/day (calculated assuming an energy intake of 2000 kcals/day in humans, and 9 kcals/g of EPA+DHA), thus we spanned both sides of the FDA approved human dose of 3.4 g/day. […] There were no differences in body mass or heart rate among groups. LV mass was 37% greater in the banded rats compared to sham on the standard diet. […]
# [2] = mammalian cells; cited from earlier work
# [3] = tested on: isolated cardiac mitochondria; test: Cardiac mitochondrial cardiolipin (CL) content and composition by electrospray ionization mass spectrometry; format: in vivo, male Wistar rats
# Method: (§1) Experimental Design: The animal protocol was conducted according to the Guideline for the Care and Use of Laboratory Animals (NIH publication 85-23) and was approved by the University of Maryland School of Medicine Institutional Animal Care and Use Committee. Investigators were blinded to treatment when measurements were performed. The animals were maintained on a reverse 12-h light-dark cycle and all procedures were performed in the fed state between 3 and 6 h from the start of the dark phase. Two series of experiments were performed. In the initial studies (Series 1) male Wistar rats weighing 190-200 g were fed a standard low fat diet (CTRL) or modified standard diet containing DHA or EPA at 2.5% of total caloric intake, which corresponds to a human intake of approximately 5.5 g/day (calculated assuming an energy intake of 2000 kcal/day and 9 kcal/g of fat). The rats were maintained on the diet for 8 weeks. Following dietary treatment, rats were anesthetized with isoflurane, blood was drawn, and the heart was harvested for biochemical analysis and mitochondrial isolation. Plasma from these animals was analyzed for free fatty acids and triglyceride levels, and cardiac mitochondria for respiration, Ca^2+ retention capacity (an index of MPTP opening), VDAC and cyclophilin D, and membrane phospholipid composition as described below. […]
# Mitochondrial Preparation: Mitochondria were isolated as previously described^228. […] The concentration of mitochondrial protein was measured by the Lowry method using bovine serum albumin as a standard.
# (§2) Membrane Lipid Composition: Cardiac phospholipid fatty acid composition was assessed in a subset of animals from Series 1 (n=7-9/group) on isolated cardiac mitochondria homogenates by gas chromatography with a flame ionization detector according to a modification of the transesterification method as previously described^228. CL composition was assessed on isolated cardiac mitochondria by electrospray ionization mass spectrometry using 1,1′,2,2′-tetramyristoyl CL as an internal standard as previously described (n=9/group)^228,229, 230.
# [4] = tested on: isolated cardiac mitochondria; test: Mitochondrial respiration (oxygen consumption, Clark-type electrode); format: in vivo, male Wistar rats; settings: for P:O: measurements without oligomycin; for RCR: ratio of State 3 to State 4 rate with oligomycin
# Method: (§3) Experimental Design: The animal protocol was conducted according to the Guideline for the Care and Use of Laboratory Animals (NIH publication 85-23) and was approved by the University of Maryland School of Medicine Institutional Animal Care and Use Committee. Investigators were blinded to treatment when measurements were performed. The animals were maintained on a reverse 12-h light-dark cycle and all procedures were performed in the fed state between 3 and 6 h from the start of the dark phase. Two series of experiments were performed. In the initial studies (Series 1) male Wistar rats weighing 190-200 g were fed a standard low fat diet (CTRL) or modified standard diet containing DHA or EPA at 2.5% of total caloric intake, which corresponds to a human intake of approximately 5.5 g/day (calculated assuming an energy intake of 2000 kcal/day and 9 kcal/g of fat). The rats were maintained on the diet for 8 weeks. Following dietary treatment, rats were anesthetized with isoflurane, blood was drawn, and the heart was harvested for biochemical analysis and mitochondrial isolation. Plasma from these animals was analyzed for free fatty acids and triglyceride levels, and cardiac mitochondria for respiration, Ca^2+ retention capacity (an index of MPTP opening), VDAC and cyclophilin D, and membrane phospholipid composition as described below. Following completion of Series 1, a second series of animal studies (Series 2) were performed to assess mitochondrial swelling using a light scattering assay, and the effects of different respiratory substrates on Ca^2+ retention capacity in mitochondria from control and DHA supplemented rats. Animals were treated for 10 weeks and were fed either CTRL or DHA (2.5% of total caloric intake).
# (§4) Mitochondrial Preparation: Mitochondria were isolated as previously described^228. LV tissue (400-500 mg) was minced and homogenized in 1:10 cold modified Chappel-Perry buffer (100 mM KCl, 50 mM MOPS, 5 mM MgSO4, 1 mM ATP, 1 mM EGTA, 2 mg/ml BSA), and the homogenates were centrifuged at 500×g. Subsequent centrifugation allowed for separation and purification of the subsarcolemmal mitochondria. The concentration of mitochondrial protein was measured by the Lowry method using bovine serum albumin as a standard.
# Mitochondrial respiration: Mitochondrial oxygen consumption was measured using a Clark-type oxygen electrode (Qubit Systems, Ontario, Canada). Mitochondria (0.25 mg protein) were suspended in 0.5 ml solution consisting of 100 mM KCl, 50 mM MOPS, 5 mM KH2PO4, 1 mM EGTA, and 0.5 mg fatty acid-free bovine serum albumin, at pH 7.4 and 37° C. State 3 (ADP-stimulated) and state 4 (non-phosphorylating) respiration were measured with glutamate+malate (10 and 5 mM, respectively), pyruvate+malate (10 and 5 mM, respectively) and palmitoylcarnitine+malate (40 μM and 5 mM, respectively) to assess respiration through complex I-IV, while succinate+rotenone (10 mM and 7.5 μM, respectively), were used to assess respiration through complex II-IV of the ETC exclusively. State 4 respiration was also measured in the presence of oligomycin to inhibit the mitochondrial ATP synthase.
# [5] = tested on: isolated cardiac mitochondria; test: Cardiac mitochondrial phospholipid fatty acid composition by gas chromatography; format: in vivo, male Wistar rats; settings: Series 1, 8 weeks diet, mean ± SEM
# Method: as §3, §4, §2
# [6] = tested on: mitochondrial permeability transition pore (MPTP); test: Ca2+ retention capacity (index of MPTP opening) in mitochondria from diet-treated rats, Series 1; format: in vivo, male Wistar rats
# Method: as §3, §4
# [7] = Plasma free fatty acids and triglycerides after dietary supplementation (Series 1); format: in vivo, male Wistar rats; settings: 2.5% of caloric intake, 8 weeks, FIG. 7
# Method: as §1, with “Following dietary treatment, rats were anesthetized with isoflurane, blood was drawn, and the heart was harvested for biochemical analysis and mitochondrial isolation.” left out
# Metabolic and Biochemical Parameters: Free fatty acids and triglycerides were assessed in the plasma using commercially available kits (Wako, Richmond, Va.). […] The digitized image was analyzed with Odyssey® software.
# VDAC1 = test: Western blot of isolated mitochondria, densitometry; format: in vivo, male Wistar rats; settings: CTRL 1.00 ± 0.13
# Method: (§5) Metabolic and Biochemical Parameters: Free fatty acids and triglycerides were assessed in the plasma using commercially available kits (Wako, Richmond, Va.). Mitochondrial proteins were separated by electrophoresis in 4-12% NuPage gels, transferred onto a nitrocellulose membrane, and incubated with specific antibodies to cyclophilin D and voltage-dependent anion channel (VDAC) (1:10,000 and 1:5000, respectively, both from Mitosciences, Eugene, Oreg.). Fluorescence-conjugated secondary antibodies (IRDye 800, 1:10,000; LI-COR Bioscience) were used for incubation before the membranes were scanned with Odyssey® infrared imaging system (LI-COR Bioscience). The digitized image was analyzed with Odyssey® software.
# cyclophilin D = test: as above; format: in vivo, male Wistar rats; settings: CTRL 1.00 ± 0.08
# Method: as §5
# VDAC2 = test: as above; format: in vivo, male Wistar rats; settings: CTRL 1.00 ± 0.15
# Method: as §5
# [8] = similar patient population to GISSI-HF; cited from earlier work
# tumor necrosis factor = target: T1, tumor necrosis factor (Homo sapiens, UniProt P01375); settings: direct cytokine blockade; cited from earlier work
# T1 construct: host or cells: heart-failure patients
# T1 sequence (P01375 77-233 limits assumed): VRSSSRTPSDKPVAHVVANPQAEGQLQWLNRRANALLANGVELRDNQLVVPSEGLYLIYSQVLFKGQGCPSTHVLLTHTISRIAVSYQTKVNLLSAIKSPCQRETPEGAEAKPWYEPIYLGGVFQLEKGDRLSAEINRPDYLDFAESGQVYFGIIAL
molecule,measurement,setting,value
"CC/C=C\C/C=C\C/C=C\CCCCCCCC(=O)O [ALA, α-linolenic acid]",cardiomyocyte apoptosis with supplementation,[1],less apoptosis
same,conversion of ALA to EPA,[2],~10%
"CC/C=C\C/C=C\C/C=C\C/C=C\C/C=C\CCCC(=O)O [EPA, eicosapentanoic acid]",total CL content,"[3]; Series 1, 8 weeks diet, CTRL 10.7±0.8, DHA vs CTRL p<0.08",11.1±0.8 nmols/mg mito prot
same,CL species containing one ARA and three linoleic acid moieties (ARA1L3CL),"[3]; Series 1, compared to CTRL, FIG. 9",decrease
same,State 4 (+ oligomycin) respiration,[4]; Glutamate + Malate,19.1 ± 3.3 ng atoms O · mg^−1 · min^−1
same,State 4 (− oligomycin) respiration,[4]; Glutamate + Malate,32.1 ± 4.8 ng atoms O · mg^−1 · min^−1
same,State 3 respiration,"[4]; Glutamate + Malate, mean ± SEM",119.3 ± 13.4 ng atoms O · mg^−1 · min^−1
same,P:O,[4]; Glutamate + Malate,2.76 ± 0.23
same,RCR,[4]; Glutamate + Malate,7.0 ± 1.0
same,State 3 respiration,[4]; Palmityl-carnitine + Malate,243.7 ± 28.1 ng atoms O · mg^−1 · min^−1
same,State 4 (+ oligomycin) respiration,[4]; Palmityl-carnitine + Malate,29.7 ± 3.8 ng atoms O · mg^−1 · min^−1
same,State 4 (− oligomycin) respiration,[4]; Palmityl-carnitine + Malate,59.4 ± 7.0 ng atoms O · mg^−1 · min^−1
same,P:O,[4]; Palmityl-carnitine + Malate,2.57 ± 0.14
same,RCR,[4]; Palmityl-carnitine + Malate,9.5 ± 1.8
same,State 3 respiration,[4]; Pyruvate + Malate,221.2 ± 31.0 ng atoms O · mg^−1 · min^−1
same,State 4 (+ oligomycin) respiration,[4]; Pyruvate + Malate,43.3 ± 5.2 ng atoms O · mg^−1 · min^−1
same,State 4 (− oligomycin) respiration,[4]; Pyruvate + Malate,63.5 ± 6.4 ng atoms O · mg^−1 · min^−1
same,P:O,[4]; Pyruvate + Malate,2.44 ± 0.30
same,RCR,[4]; Pyruvate + Malate,5.1 ± 0.3
same,State 3 respiration,[4]; Succinate + Rotenone,307.2 ± 37.1 ng atoms O · mg^−1 · min^−1
same,State 4 (+ oligomycin) respiration,[4]; Succinate + Rotenone,80.3 ± 11.7 ng atoms O · mg^−1 · min^−1
same,State 4 (− oligomycin) respiration,[4]; Succinate + Rotenone,102.1 ± 11.5 ng atoms O · mg^−1 · min^−1
same,P:O,[4]; Succinate + Rotenone,1.48 ± 0.08
same,RCR,[4]; Succinate + Rotenone,4.1 ± 0.5
same,decrease of state 4 respiration,"[4]; pyruvate+malate, absence and presence of oligomycin, vs control, p<0.05",no effect
same,increase of RCR,"[4]; pyruvate+malate, vs control, p<0.05",no effect
same,Mitochondrial phospholipid C18:0,[5],19.8 ± 0.8 molar percent of total phospholipid fatty acid
same,Mitochondrial phospholipid C18:1n7,[5],4.2 ± 0.2 molar percent of total phospholipid fatty acid
same,Mitochondrial phospholipid C18:1n9,[5],11.8 ± 1.0 molar percent of total phospholipid fatty acid
same,Mitochondrial phospholipid C18:2n6,[5],22.4 ± 0.8 molar percent of total phospholipid fatty acid
same,Mitochondrial phospholipid Total ω-3 PUFA,[5],14.3 ± 0.3 molar percent of total phospholipid fatty acid
same,Mitochondrial phospholipid C16:0,[5]; n = 7-8/group,10.8 ± 0.6 molar percent of total phospholipid fatty acid
same,Mitochondrial phospholipid C16:1,[5]; BQL = below the quantifiable limit (limit of detection = 0.41%),4.5 ± 1.8 molar percent of total phospholipid fatty acid
same,Mitochondrial phospholipid C20:3n6,[5]; BQL in control,1.1 ± 0.2 molar percent of total phospholipid fatty acid
same,Mitochondrial phospholipid C22:6n3,[5]; DHA,8.3 ± 0.2 molar percent of total phospholipid fatty acid
same,Mitochondrial phospholipid C20:5n3,"[5]; EPA, BQL in control",6.0 ± 0.2 molar percent of total phospholipid fatty acid
same,Mitochondrial phospholipid C20:4n6,[5]; arachidonic acid (ARA),9.8 ± 0.8 molar percent of total phospholipid fatty acid
same,Ca2+ required to elicit MPTP,"[6]; glutamate + malate, without CsA, CTRL 83.0±8.7",80.8±4.9 nmol Ca^2+/mg mito prot
same,Ca2+ required to elicit MPTP,[6]; mitochondria of diet group with addition of 100 nM CsA,130.6±12.8 nmol Ca^2+/mg mito prot
same,plasma free fatty acid concentration compared to CTRL,[7],lowered
same,plasma triglyceride concentration compared to CTRL,[7],lowered
same,"VDAC 1 protein, densitometry",VDAC1,0.87 ± 0.16
same,"Cyclophilin D protein, densitometry",cyclophilin D,1.00 ± 0.08
same,"VDAC 2 protein, densitometry",VDAC2,0.94 ± 0.17
CC(C)c1nc(N(C)S(C)(=O)=O)nc(-c2ccc(F)cc2)c1/C=C/[C@@H](O)C[C@@H](O)CC(=O)O [rosuvastatin],beneficial effect in HF patients,[8],no beneficial effect
ETANERCEPT,efficacy in HF patients,tumor necrosis factor,not effective
